Laboratory results as given in US20240391875A1, “ISOQUINOLINONES AND QUINOLINONES AS MODULATORS OF POLRMT” (Pretzel Therapeutics, Inc., priority 2021, published 2024).

Biological target: POLRMT (Homo sapiens, UniProt O00411)
Test: homogeneous TR-FRET assay of mitochondrial transcription (inhibition of POLRMT)
Assay type: biochemical
Protocol: The inhibitory activity of the compounds of the present invention against POLRMT were determined by assays based on Bergbrede, T., et al., “An adaptable high-throughput technology enabling the identification of specific transcription modulators,” SLAC Discov., 22, 378-386 (2017).
The ability of some compounds of the present invention to inhibit POLRMT were determined in a homogeneous TR-FRET Assay using high-throughput screening in a 384-well plate format. This method is used to monitor the activity of mitochondrial transcription through measurement of its product, a 407 bp long RNA transcript. Detection of the product is facilitated by hybridization of two DNA-oligonucleotide probes to specific and adjacent sequences within the RNA product sequence. Upon annealing of the probes, two fluorophores are coupled directly to an acceptor nucleotide probe (ATTO647, 5′), or introduced via a coupled streptavidin with a biotinylated donor nucleotide probe (Europium cryptate) that is brought into sufficient proximity to serve as a fluorescence-donor-acceptor pair. Thus, a FRET signal at 665 nm is generated upon excitation at 340 nm.
Proteins used as transcription factors (POLRMT: NP_005026.3, TFAM: NP_003192.1, TFB2M: NP_071761.1) are diluted from their stocks to working concentrations of 1 μM, 20 μM and 4 μM respectively, in a dilution buffer containing 20 mM Tris-HCl (pH 8.0), 200 mM NaCl, 10% (v/v) glycerol, 1 mM Dithiothreitol (DTT), 0.5 mM EDTA.
DNA template is a pUC18 plasmid with the mitochondrial light strand promotor sequence (1-477) cloned between HindIII and BamHI sites. The DNA template is restriction linearized proximal to the promotor 3′-end (pUC-LSP).
The reaction mixture (10 uL) containing 7.5 nM POLRMT, 15 nM of TFB2M, 30 nM of TFAM, 0.5 nM of DNA template and 500 μM nucleotide triphosphate mix (NTPs) in a reaction buffer (containing 10 mM Tris-HCl (pH 7.5), 10 mM MgCl2, 40 mM NaCl, 10 mM DTT, 0.005% (w/v) Tween-20, 160 units/ml Rnase inhibitor and 0.1 mg/mL BSA) are dispensed to compounds in microplates, using a Thermo Multidrop® dispenser, and incubated at 37° C. in a VWR INCU-Line incubator for 60 minutes after mixing. No nucleotide triphosphate mix is added to negative control samples. Microplates with compounds to be tested in the assay are prepared from 10 mM compound stocks in 100% DMSO, equal amounts of DMSO without any compound are added to positive control and negative control samples.
During the incubation, a mix of the detection reagents is prepared in a buffer such that the enzymatic reaction is terminated due to chelating of Mg-ions and increased ionic strength, containing 50 mM Tris-HCl (pH 7.5), 700 mM NaCl, 20 mM EDTA, and 0.010% (w/v) Tween-20. Europium-streptavidin is pre-incubated with a 200-fold molar excess of a random sequence oligonucleotide to block unspecific binding of oligo, for two hours at ambient temperature in the dark. Afterwards, the blocked Europium-streptavidin is kept on ice until use.
At the end of the enzymatic reaction time, 5 μL detection oligo mix in the detection buffer is added, and assay plates are mixed and kept at ambient temperature for one hour, protected from light. The concentration of the Acceptor nucleotide oligo (e.g., ATTO647N-5′-[…]-3′) and Donor nucleotide oligo (e.g., bio-5′-AACACATCTCT(-bio)GCCAAACCCCA-bio-3′) in each assay well is 1 nM, and 3 nM, respectively.
After incubation with oligo mix, 5 μL of pre-blocked Europium-streptavidin reagent is dispensed to each assay well, assay plates are again mixed and kept at ambient temperature for one hour, protected from light.
The generated signal is measured with BMG Pherastar microtiter plate reader with a TRF light unit, using excitation at 340 nm, an integration time of 200 μs, and a delay time of 100 μs, before detection at 620 nm and 665 nm. The ratio of donor- and acceptor-fluorescence is used as a measure of the generated transcript product (i.e. enzymatic activity).

[1] = isoquinolinone compounds (Table 1)
[2] = quinolinone compounds (Table 2)

POLRMT, sequence (O00411 42-1230): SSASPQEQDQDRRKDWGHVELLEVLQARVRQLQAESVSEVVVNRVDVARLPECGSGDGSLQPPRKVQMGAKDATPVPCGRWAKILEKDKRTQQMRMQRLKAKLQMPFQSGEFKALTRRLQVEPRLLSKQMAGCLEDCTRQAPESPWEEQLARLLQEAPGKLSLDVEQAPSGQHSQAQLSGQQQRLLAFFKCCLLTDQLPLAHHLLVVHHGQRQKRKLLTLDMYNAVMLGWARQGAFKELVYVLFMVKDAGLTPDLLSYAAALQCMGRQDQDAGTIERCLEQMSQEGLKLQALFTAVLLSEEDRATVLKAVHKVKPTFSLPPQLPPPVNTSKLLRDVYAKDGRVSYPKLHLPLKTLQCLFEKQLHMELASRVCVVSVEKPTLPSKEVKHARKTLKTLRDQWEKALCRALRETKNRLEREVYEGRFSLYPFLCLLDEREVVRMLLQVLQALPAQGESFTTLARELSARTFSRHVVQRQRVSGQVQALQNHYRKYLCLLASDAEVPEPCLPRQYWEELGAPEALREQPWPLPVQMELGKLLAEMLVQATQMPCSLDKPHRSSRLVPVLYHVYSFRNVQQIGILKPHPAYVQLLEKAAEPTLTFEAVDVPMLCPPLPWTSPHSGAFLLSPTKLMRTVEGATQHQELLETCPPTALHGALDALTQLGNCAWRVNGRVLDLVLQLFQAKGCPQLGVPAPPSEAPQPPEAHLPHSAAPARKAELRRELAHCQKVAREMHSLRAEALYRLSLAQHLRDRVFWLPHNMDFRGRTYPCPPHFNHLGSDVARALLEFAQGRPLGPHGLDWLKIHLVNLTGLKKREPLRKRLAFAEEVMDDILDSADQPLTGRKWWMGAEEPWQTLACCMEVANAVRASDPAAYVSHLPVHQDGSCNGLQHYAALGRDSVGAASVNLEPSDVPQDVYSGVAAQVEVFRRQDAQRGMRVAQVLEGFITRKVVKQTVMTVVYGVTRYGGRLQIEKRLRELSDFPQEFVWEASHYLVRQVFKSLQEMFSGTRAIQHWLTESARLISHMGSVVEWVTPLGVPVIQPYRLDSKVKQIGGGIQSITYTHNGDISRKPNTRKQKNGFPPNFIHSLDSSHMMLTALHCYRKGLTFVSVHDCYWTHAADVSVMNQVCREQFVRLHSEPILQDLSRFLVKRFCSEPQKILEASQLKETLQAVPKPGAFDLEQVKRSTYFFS

| SMILES | IC50 [1] [nM] | IC50 [2] [nM] |
| --- | --- | --- |
| COCC(C)Oc1ccc2c(-c3ccccc3C)c[nH]c(=O)c2c1 (single isomer, unassigned) [Example 26, 7-((1-methoxypropan-2-yl)oxy)-4-(o-tolyl)isoquinolin-1(2H)-one] | 1000 | – |
| COCC(C)Oc1ccc2c(-c3ccccc3C)c[nH]c(=O)c2c1 (single isomer, unassigned) [Example 27, 7-((1-methoxypropan-2-yl)oxy)-4-(o-tolyl)isoquinolin-1(2H)-one] | 1000 | – |
| CC(C#N)Oc1ccc2c(-c3ccc(F)cc3Cl)c[nH]c(=O)c2c1 (single isomer, unassigned) [Example 49, 2-((4-(2-chloro-4-fluorophenyl)-1-oxo-1,2-dihydroisoquinolin-7-yl)oxy)propanenitrile] | 5000 | – |
| COCC(Oc1ccc2c(-c3ccccc3C)c[nH]c(=O)c2c1)C(N)=O (single isomer, unassigned) [Example 52] | > 100000 | – |
| COCC(Oc1ccc2c(-c3ccccc3C)c[nH]c(=O)c2c1)C(N)=O (single isomer, unassigned) [Example 53] | 13000 | – |
| COCC(Oc1ccc2c(-c3ccccc3C)c[nH]c(=O)c2c1)C(=O)N(C)C (single isomer, unassigned) [Example 54] | > 100000 | – |
| COCC(Oc1ccc2c(-c3ccccc3C)c[nH]c(=O)c2c1)C(=O)N(C)C (single isomer, unassigned) [Example 55, 3-methoxy-N,N-dimethyl-2-((1-oxo-4-(o-tolyl)-1,2-dihydroisoquinolin-7-yl)oxy)propenamide] | 2000 | – |
| CC(C#N)Oc1ccc2c(-c3ccccc3Cl)c[nH]c(=O)c2c1 (single isomer, unassigned) [Example 58, 2-((4-(2-chlorophenyl)-1-oxo-1,2-dihydroisoquinolin-7-yl)oxy)propanenitrile] | 2000 | – |
| Cc1ccccc1-c1c[nH]c(=O)c2cc(OC(C)C(N)=O)ccc12 (single isomer, unassigned) [Example 72] | 17000 | – |
| COCC(C#N)Oc1ccc2c(-c3ccccc3C)c[nH]c(=O)c2c1 (single isomer, unassigned) [Example 75, 3-methoxy-2-((1-oxo-4-(o-tolyl)-1,2-dihydroisoquinolin-7-yl)oxy)propanenitrile] | 4000 | – |
| C[C@@H](Oc1ccc2c(-c3ccc(F)cc3Cl)c[nH]c(=O)c2c1)C(=O)N1CCCC(S(C)(=O)=O)C1 (single isomer, unassigned) [Example 95] | 1000 | – |
| C[C@@H](Oc1ccc2c(-c3ccc(F)cc3Cl)c[nH]c(=O)c2c1)C(=O)N1CCCC(S(C)(=O)=O)C1 (single isomer, unassigned) [Example 96] | 2000 | – |
| Cc1ccccc1-c1cc(=O)[nH]c2cc(O[C@H](C)C(=O)N(C)C)ccc12 (single isomer, unassigned) [Example Q7] | – | 9000 |
| Cc1ccccc1-c1cc(=O)[nH]c2cc(O[C@@H](C)C(=O)N(C)C)ccc12 (single isomer, unassigned) [Example Q8] | – | > 100000 |
| COc1ccc2c(-c3ccc(F)cc3Cl)c[nH]c(=O)c2c1 [Example 1, 4-(2-chloro-4-fluorophenyl)-7-methoxyisoquinolin-1(2H)-one] | 10000 | – |
| O=c1[nH]cc(-c2ccc(F)cc2Cl)c2ccc(O)cc12 [Example 2, 4-(2-chloro-4-fluorophenyl)-7-hydroxyisoquinolin-1(2H)-one] | > 100000 | – |
| CCC(C)Oc1ccc2c(-c3ccccc3C)c[nH]c(=O)c2c1 (centres unmarked) [Example 5, 7-(sec-butoxy)-4-(o-tolyl)isoquinolin-1(2H)-one] | 200 | – |
| Cc1ccccc1-c1c[nH]c(=O)c2cc(OCC(C)C)ccc12 [Example 6, 7-isobutoxy-4-(o-tolyl)isoquinolin-1(2H)-one] | 200 | – |
| Cc1ccccc1-c1c[nH]c(=O)c2cc(OCC(=O)N(C)C)ccc12 [Example 8, N,N-dimethyl-2-((1-oxo-4-(o-tolyl)-1,2-dihydroisoquinolin-7-yl)oxy)acetamide] | 35000 | – |
| COCCOc1ccc2c(-c3ccccc3C)c[nH]c(=O)c2c1 [Example 9, 7-(2-methoxyethoxy)-4-(o-tolyl)isoquinolin-1(2H)-one] | 3000 | – |
| Cc1ccccc1-c1c[nH]c(=O)c2cc(OCCN(C)C)ccc12 [Example 10, 7-(2-(dimethylamino)ethoxy)-4-(o-tolyl)isoquinolin-1(2H)-one] | > 100000 | – |
| Cc1ccccc1-c1c[nH]c(=O)c2cc(CO)ccc12 [Example 15, 7-(hydroxymethyl)-4-(o-tolyl)isoquinolin-1(2H)-one] | 51000 | – |
| CC(=O)N1CC[C@@H](Oc2ccc3c(-c4ccccc4C)c[nH]c(=O)c3c2)C1 [Example 16, (R)-7-((1-acetylpyrrolidin-3-yl)oxy)-4-(o-tolyl)isoquinolin-1(2H)-one] | 51000 | – |

The remaining compounds from weak to strong by IC50 [1], led by results:

| IC50 [1] [nM] | IC50 [2] [nM] | SMILES |
| --- | --- | --- |
| 900 | – | Cc1ccccc1-c1c[nH]c(=O)c2cc(OC(C)C#N)ccc12 (single isomer, unassigned) [Example 13, 2-((1-oxo-4-(o-tolyl)-1,2-dihydroisoquinolin-7-yl)oxy)propanenitrile] |
| 800 | – | CC(C)Oc1ccc2c(-c3ccc(F)cc3Cl)c[nH]c(=O)c2c1 [Example 7, 4-(2-chloro-4-fluorophenyl)-7-isopropoxyisoquinolin-1(2H)-one] |
| 600 | – | CC(C#N)Oc1ccc2c(-c3ccc(F)cc3Cl)c[nH]c(=O)c2c1 (single isomer, unassigned) [Example 50, 2-((4-(2-chloro-4-fluorophenyl)-1-oxo-1,2-dihydroisoquinolin-7-yl)oxy)propanenitrile] |
| 500 | – | C[C@H]1CN(C(=O)[C@@H](C)Oc2ccc3c(-c4ccc(F)cc4Cl)c[nH]c(=O)c3c2)C[C@H](C)O1 (single isomer, unassigned) [Example 124] |
| 400 | – | Cc1ccccc1-c1c[nH]c(=O)c2cc(OC(C)C(N)=O)ccc12 (single isomer, unassigned) [Example 73] |
| 400 | – | Cc1ccccc1-c1c[nH]c(=O)c2cc(OC(C)C)ccc12 [Example 4, 7-isopropoxy-4-(o-tolyl)isoquinolin-1(2H)-one] |
| 300 | – | CC(C#N)Oc1ccc2c(-c3ccccc3Cl)c[nH]c(=O)c2c1 (single isomer, unassigned) [Example 57, 2-((4-(2-chlorophenyl)-1-oxo-1,2-dihydroisoquinolin-7-yl)oxy)propanenitrile] |
| 300 | – | Cc1ccccc1-c1c[nH]c(=O)c2cc(O[C@H](C)C(=O)N3CCCC(S(C)(=O)=O)C3)ccc12 (single isomer, unassigned) [Example 97] |
| 300 | – | Cc1ccccc1-c1c[nH]c(=O)c2cc(O[C@H](C)C(=O)N3CCCC(S(C)(=O)=O)C3)ccc12 (single isomer, unassigned) [Example 98] |
| 200 | – | Cc1ccccc1-c1c[nH]c(=O)c2cc(OC(C)C#N)ccc12 (single isomer, unassigned) [Example 12, 2-((1-oxo-4-(o-tolyl)-1,2-dihydroisoquinolin-7-yl)oxy)propanenitrile] |
| 200 | – | COCC(C#N)Oc1ccc2c(-c3ccccc3C)c[nH]c(=O)c2c1 (single isomer, unassigned) [Example 76, 3-methoxy-2-((1-oxo-4-(o-tolyl)-1,2-dihydroisoquinolin-7-yl)oxy)propanenitrile] |
| 200 | – | C[C@H]1CN(C(=O)[C@@H](C)Oc2ccc3c(-c4ccc(F)cc4Cl)c[nH]c(=O)c3c2)C[C@H](C)O1 (single isomer, unassigned) [Example 125] |
